From patent US20170198006A1, “PRMT5 INHIBITORS AND USES THEREOF” (Epizyme, Inc., priority 2014, published 2017)
Blank lines part the entries; values can stand above or below the molecule they belong to.

Target: T1, PRMT5/MEP50 (Homo sapiens, UniProt O14744)
T1 construct: Flag-PRMT5; made in house; host or cells: Spodoptera frugiperda (SF9), baculovirus
Assay: PRMT5 Biochemical Assay (PRMT5/MEP50 enzyme assay on histone H4 peptide substrate, 3H-SAM Flashplate)
Details: PRMT5 biochemical assay; read-out: Biochemical IC50
From the text: S-adenosylmethionine (SAM), S-adenosylhomocysteine (SAH), bicine, KCl, Tween20, dimethylsulfoxide (DMSO), bovine skin gelatin (BSG), and Tris(2-carboxyethyl)phosphine hydrochloride solution (TCEP) were purchased from Sigma-Aldrich at the highest level of purity possible. ^3H-SAM was purchase from American Radiolabeled Chemicals with a specific activity of 80 Ci/mmol. 384-well streptavidin Flashplates were purchased from PerkinElmer.
Peptide representative of human histone H4 residues 1-15 was synthesized with a C-terminal linker-affinity tag motif and a C-terminal amide cap by 21st Century Biochemicals.
The amplified genes were sublconed into pENTR/D/TEV (Life Technologies) and subsequently transferred by Gateway™ attL×attR recombination to pDEST8 baculvirus expression vector (Life Technologies).
Protein over-expression was accomplished by infecting exponentially growing Spodoptera frugiperda (SF9) cell culture at 1.2×10^6 cell/ml with a 5000 fold dilution of BIIC stock. Infections were carried out at 27° C. for 72 hours, harvested by centrifugation, and stored at −80° C. for purification.
Flag-PRMT5/6His-MeP50 was eluted with 300 mM Imidazole in the same buffer.
General Procedure for PRMT5/MEP50 Enzyme Assays on Peptide Substrates.
The assays were all performed in a buffer consisting of 20 mM Bicine (pH=7.6), 1 mM TCEP, 0.005% BSG, and 0.002% Tween20, prepared on the day of use. […] DMSO (1 ul) was added to Columns 11, 12, 23, 24, rows A-H for the maximum signal control and 1 ul of SAH, a known product and inhibitor of PRMT5/MEP50, was added to columns 11, 12, 23, 24, rows I-P for the minimum signal control. A cocktail (40 ul) containing the PRMT5/MEP50 enzyme and the peptide was added by Multidrop Combi (Thermo-Fisher). The compounds were allowed to incubate with PRMT5/MEP50 for 30 min at 25 degrees Celsius, then a cocktail (10 ul) containing ^3H-SAM was added to initiate the reaction (final volume=51 ul). […] The assays were stopped by the addition of non-radioactive SAM (10 ul) to a final concentration of 600 uM, which dilutes the ^3H-SAM to a level where its incorporation into the peptide substrate is no longer detectable. 50 ul of the reaction in the 384-well polypropylene plate was then transferred to a 384-well Flashplate and the biotinylated peptides were allowed to bind to the streptavidin surface for at least 1 hour before being washed three times with 0.1% Tween20 in a Biotek ELx405 plate washer. The plates were then read in a PerkinElmer TopCount plate reader to measure the quantity of ^3H-labeled peptide bound to the Flashplate surface, measured as disintegrations per minute (dpm) or alternatively, referred to as counts per minute (cpm).
Where dpm=disintegrations per minute, cmpd=signal in assay well, and min and max are the respective minimum and maximum signal controls.
Where top and bottom are the normally allowed to float, but may be fixed at 100 or 0 respectively in a 3-parameter fit. The Hill Coefficient normally allowed to float but may also be fixed at 1 in a 3-parameter fit. Y is the % inhibition and X is the compound concentration.

T1 sequence (O14744 with tags, fused parts or gaps): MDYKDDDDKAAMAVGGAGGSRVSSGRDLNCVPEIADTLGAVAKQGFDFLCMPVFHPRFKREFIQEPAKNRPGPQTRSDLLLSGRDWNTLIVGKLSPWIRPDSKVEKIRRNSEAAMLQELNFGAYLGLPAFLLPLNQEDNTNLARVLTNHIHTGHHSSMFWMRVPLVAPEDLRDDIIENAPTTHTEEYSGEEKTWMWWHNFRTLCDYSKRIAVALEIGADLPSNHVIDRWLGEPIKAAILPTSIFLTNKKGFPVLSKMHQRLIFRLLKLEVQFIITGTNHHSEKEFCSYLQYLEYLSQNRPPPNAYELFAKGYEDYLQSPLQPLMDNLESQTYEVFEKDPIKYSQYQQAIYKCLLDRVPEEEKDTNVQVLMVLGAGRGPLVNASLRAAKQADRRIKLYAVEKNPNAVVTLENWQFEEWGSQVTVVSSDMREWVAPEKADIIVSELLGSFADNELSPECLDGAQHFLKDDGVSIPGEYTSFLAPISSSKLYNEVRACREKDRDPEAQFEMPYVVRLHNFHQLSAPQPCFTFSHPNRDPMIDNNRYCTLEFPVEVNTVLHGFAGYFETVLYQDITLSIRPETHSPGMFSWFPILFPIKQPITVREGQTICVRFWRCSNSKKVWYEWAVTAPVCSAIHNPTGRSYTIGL
T1 sequence (Q9BQA1 with tags, fused parts or gaps partner limits assumed): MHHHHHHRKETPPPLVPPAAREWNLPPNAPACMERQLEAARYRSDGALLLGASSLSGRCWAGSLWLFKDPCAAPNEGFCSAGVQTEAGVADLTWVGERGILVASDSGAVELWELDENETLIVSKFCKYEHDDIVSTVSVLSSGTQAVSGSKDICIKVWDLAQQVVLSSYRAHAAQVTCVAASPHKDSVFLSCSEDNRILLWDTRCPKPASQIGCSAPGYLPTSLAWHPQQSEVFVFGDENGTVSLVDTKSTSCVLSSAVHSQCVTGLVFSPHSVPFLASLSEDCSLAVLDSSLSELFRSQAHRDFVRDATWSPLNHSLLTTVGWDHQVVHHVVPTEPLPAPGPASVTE

Compound: COc1cccc(NC(=O)CC2NC(N3CCN(c4ccccc4)CC3)=NC2=O)c1 (stereo not drawn) [Compound 61-14]
IC50: 10 to 50 µM

Compound: O=C(CC1NC(N2CCC(O)(c3ccccc3)CC2)=NC1=O)Nc1ccc(Cl)cc1 (stereo not drawn) [Compound 73-14]
IC50: 0.101 to 1 µM

Compound: O=C(CC1NC(N2CCc3ccccc3C2)=NC1=O)Nc1ccc(Cl)cc1 (stereo not drawn) [Compound 56-14]
IC50: 0.101 to 1 µM

Compound: CC(CN)N(C)C[C@H]1O[C@@H](n2cnc3c(N)ncnc32)[C@H](O)[C@@H]1O (stereo partly drawn) [Compound 28-1]
IC50: 0.101 to 1 µM

Compound: COc1cccc([C@H](C)NCCN(C)C[C@H]2O[C@@H](n3cnc4c(N)ncnc43)[C@H](O)[C@@H]2O)c1 [Compound 2-1]
IC50: 0.101 to 1 µM

Compound: Cc1ccc(C(=O)CC2NC(N3CCN(Cc4ccccc4)CC3)=NC2=O)cc1 (stereo not drawn) [Compound 28-14]
IC50: 1 to 10 µM

Compound: CN(CCNC1CCCC1)C[C@H]1O[C@@H](n2cnc3c(N)ncnc32)[C@H](O)[C@@H]1O [Compound 65-1]
IC50: 0.101 to 1 µM

Compound: NCCN(CCCCC(=O)O)C[C@H]1O[C@@H](n2cnc3c(N)ncnc32)[C@H](O)[C@@H]1O [Compound 34-1]
IC50: < 0.1 µM

Compound: COc1cccc(C(=O)CC2NC(N3CCN(c4ccccc4)CC3)=NC2=O)c1 (stereo not drawn) [Compound 39-14]
IC50: 0.101 to 1 µM

Compound: O=C(CC1NC(N2CCN(c3ccccc3)CC2)=NC1=O)c1ccccc1Br (stereo not drawn) [Compound 75-14]
IC50: 0.101 to 1 µM

Compound: COc1cc(CNCCN(C)C[C@H]2O[C@@H](n3cnc4c(N)ncnc43)[C@H](O)[C@@H]2O)cc(OC)c1 [Compound 11-1]
IC50: 0.101 to 1 µM

Compound: CN(CCN1CCCN(Cc2ccccc2)CC1)C[C@H]1OC(n2cnc3c(N)ncnc32)[C@H](O)[C@@H]1O (stereo partly drawn) [Compound 40-1]
IC50: 0.101 to 1 µM

Compound: COc1ccc(NC(=O)CC2NC(N3CCN(c4ccccc4)CC3)=NC2=O)cc1 (stereo not drawn) [Compound 62-14]
IC50: 1 to 10 µM

Compound: NCc1ncc(CCNC(=O)c2ccccc2)n1Cc1ccccc1 [Compound 7-13]
IC50: 10 to 50 µM

Compound: O=C(CC1NC(N2CCN(c3ccccc3)CC2)=NC1=O)NCC1CCCCC1 (stereo not drawn) [Compound 53-14]
IC50: 1 to 10 µM

Compound: CN(CCNC1CCCCC1)C[C@H]1O[C@@H](n2cnc3c(N)ncnc32)[C@H](O)[C@@H]1O [Compound 54-1]
IC50: < 0.1 µM

Compound: Cc1ccc(C(=O)CC2NC(N3CCN(c4cccnc4)CC3)=NC2=O)cc1 (stereo not drawn) [Compound 43-14]
IC50: 1 to 10 µM

Compound: Nc1ncnc2c1ncn2[C@@H]1O[C@H](CSC[C@H](N)C(=O)O)[C@@H](O)[C@H]1O [Compound 88-1]
IC50: 0.101 to 1 µM

Compound: CC(=O)c1ccc(NC(=O)CC2NC(N3CCN(C)CC3)=NC2=O)cc1 (stereo not drawn) [Compound 26-14]
IC50: 10 to 50 µM

Compound: O=C(CC1NC(N2CCN(c3ccccc3)CC2)=NC1=O)NC1CCCCC1 (stereo not drawn) [Compound 52-14]
IC50: 10 to 50 µM

Compound: Cc1cnc(CN)n1Cc1ccccc1 [Compound 5-13]
IC50: 1 to 10 µM

Compound: CN1CCC(N(C)CCN(C)C[C@H]2O[C@@H](n3cnc4c(N)ncnc43)[C@H](O)[C@@H]2O)C1 (stereo partly drawn) [Compound 39-1]
IC50: 0.101 to 1 µM

Compound: Cc1ccc(C(=O)CC2NC(N3CCN(Cc4ccncc4)CC3)=NC2=O)cc1 (stereo not drawn) [Compound 44-14]
IC50: 1 to 10 µM

Compound: NCCCCN(CC[C@H](N)C(=O)O)C[C@H]1O[C@@H](n2cnc3c(N)ncnc32)[C@H](O)[C@@H]1O [Compound 24-1]
IC50: < 0.1 µM

Compound: NCCN(CCC[C@H](N)CO)C[C@H]1O[C@@H](n2cnc3c(N)ncnc32)[C@H](O)[C@@H]1O [Compound 35-1]
IC50: 0.101 to 1 µM

Compound: COc1ccccc1C(=O)CC1NC(N2CCC(O)(c3ccccc3)CC2)=NC1=O (stereo not drawn) [Compound 55-14]
IC50: 0.101 to 1 µM

Compound: Cc1ccc(C(=O)CC2NC(N(C)CCc3ccccc3)=NC2=O)cc1 (stereo not drawn) [Compound 41-14]
IC50: 1 to 10 µM

Compound: O=C(CC1NC(N2CCN(c3ccccc3)CC2)=NC1=O)Nc1ccccc1Cl (stereo not drawn) [Compound 49-14]
IC50: 10 to 50 µM

Compound: Nc1ncnc2c1ncn2[C@@H]1O[C@H](CSCCCC(=O)O)[C@@H](O)[C@H]1O [Compound 95-1]
IC50: 0.101 to 1 µM

Compound: Cc1ccc(C(=O)CC2NC(N3CCN(c4cccc(F)c4)CC3)=NC2=O)cc1 (stereo not drawn) [Compound 31-14]
IC50: 1 to 10 µM

Compound: O=C(CC1NC(N2CCN(c3ccccc3)CC2)=NC1=O)c1ccccc1 (stereo not drawn) [Compound 37-14]
IC50: 0.101 to 1 µM

Compound: CCN1CCN(C2=NC(=O)C(CC(=O)Nc3ccc(OC)cc3)N2)CC1 (stereo not drawn) [Compound 11-14]
IC50: 1 to 10 µM

Compound: CCN(CC)CCN(C)C[C@H]1O[C@@H](n2cnc3c(N)ncnc32)[C@H](O)[C@@H]1O [Compound 38-1]
IC50: 0.101 to 1 µM

Compound: COc1ccccc1C(=O)CC1NC(N2Cc3ccccc3C2)=NC1=O (stereo not drawn) [Compound 71-14]
IC50: 1 to 10 µM

Now from value to molecule:

IC50: 0.101 to 1 µM
Compound: Cc1ccc(C(C)NCCN(C)C[C@H]2O[C@@H](n3cnc4c(N)ncnc43)[C@H](O)[C@@H]2O)cc1 (stereo partly drawn) [Compound 3-1]

IC50: 0.101 to 1 µM
Compound: CC(C)N(CCNCCc1ccc(Cl)cc1)C[C@H]1O[C@@H](n2cnc3c(N)ncnc32)[C@H](O)[C@@H]1O [Compound 77-1]

IC50: 0.101 to 1 µM
Compound: CN(CCNCc1ccc(Cl)c(Cl)c1)C[C@H]1O[C@@H](n2cnc3c(N)ncnc32)[C@H](O)[C@@H]1O [Compound 13-1]

IC50: 0.101 to 1 µM
Compound: CN(CCNCc1ccccc1)C[C@H]1O[C@@H](n2cnc3c(N)ncnc32)[C@H](O)[C@@H]1O [Compound 12-1]

IC50: 0.101 to 1 µM
Compound: CN(CCN(C)C[C@H]1O[C@@H](n2cnc3c(N)ncnc32)[C@H](O)[C@@H]1O)Cc1ccc(Cl)cc1 [Compound 10-1]

IC50: < 0.1 µM
Compound: Nc1ncnc2c1ncn2[C@@H]1O[C@H](CN(CCCC(=O)O)CCNCCc2ccc(Cl)cc2)[C@@H](O)[C@H]1O [Compound 80-1]

IC50: 0.101 to 1 µM
Compound: CN(CCc1ccc(Cl)cc1)CCN(C)C[C@H]1O[C@@H](n2cnc3c(N)ncnc32)[C@H](O)[C@@H]1O [Compound 52-1]

IC50: 0.101 to 1 µM
Compound: CN(CCN(C)C[C@H]1O[C@@H](n2cnc3c(N)ncnc32)[C@H](O)[C@@H]1O)Cc1ccccc1Cl [Compound 6-1]

IC50: 0.101 to 1 µM
Compound: CC(NCCN(C)C[C@H]1O[C@@H](n2cnc3c(N)ncnc32)[C@H](O)[C@@H]1O)c1ccccc1 (stereo partly drawn) [Compound 5-1]

IC50: 0.101 to 1 µM
Compound: CN(CCN)C[C@H]1O[C@@H](n2cnc3c(N)ncnc32)[C@H](O)[C@@H]1O [Compound 27-1]

IC50: < 0.1 µM
Compound: CN(CCNCCc1ccccc1Cl)C[C@H]1O[C@@H](n2cnc3c(N)ncnc32)[C@H](O)[C@@H]1O [Compound 60-1]

IC50: < 0.1 µM
Compound: Nc1ncnc2c1ncn2[C@@H]1O[C@H](CNCCNCCc2ccc(Cl)cc2)[C@@H](O)[C@H]1O [Compound 74-1]

IC50: 0.101 to 1 µM
Compound: CN(CCNCCOc1cccc(F)c1)C[C@H]1O[C@@H](n2cnc3c(N)ncnc32)[C@H](O)[C@@H]1O [Compound 73-1]

IC50: 0.101 to 1 µM
Compound: COCCNCCN(C)C[C@H]1O[C@@H](n2cnc3c(N)ncnc32)[C@H](O)[C@@H]1O [Compound 59-1]

IC50: < 0.1 µM
Compound: CCCCNCCN(C)C[C@H]1O[C@@H](n2cnc3c(N)ncnc32)[C@H](O)[C@@H]1O [Compound 68-1]

IC50: 0.101 to 1 µM
Compound: CC(=O)N(CCNCCc1ccc(Cl)cc1)C[C@H]1O[C@@H](n2cnc3c(N)ncnc32)[C@H](O)[C@@H]1O [Compound 76-1]

IC50: 0.101 to 1 µM
Compound: CN(CCNCc1ccco1)C[C@H]1O[C@@H](n2cnc3c(N)ncnc32)[C@H](O)[C@@H]1O [Compound 14-1]
